From patent US5922755A, “Immunomodulator, cell adhesion inhibtor, and agent for treating, and preventing autoimmune diseases” (Toyama Chemical Co., Ltd., priority 1993, dated 1999) come the findings set out here.

Structures are written as SMILES.

Experiment [1] has as its system delayed-type hypersensitivity. Put plainly: Delayed-type hypersensitivity potentiated in mice by cyclophosphamide pretreatment (SRBC-induced paw edema). The experiment is classed as in vivo, BALB/c male mice. The note with it: Mus musculus, po, 120 h, read-out: Delayed-type paw edema inhibitions; for inhibition in vivo at 100 mg/kg: 100 mg/kg p.o. once a day for 5 days; for inhibition in vivo at 30 mg/kg: 30 mg/kg p.o. once a day for 5 days; for inhibition in vivo at 10 mg/kg: 10 mg/kg p.o. once a day for 5 days. On the procedure:
The effect of the test compounds on the delayed-type hypersensitivity. Delayed-type hypersensitivity in potentiated in mice by pretreatment with cyclophosphamide was carried out in accordance with the method of P. H. Lagrange et al., Journal of Experimental Medicine, Vol.139, pp.1529-1539(1974). In brief, BALB/c male mice (8 weeks old, 6 to 8 mice per group) were pretreated with intraperitoneal injection of 75 mg/kg cyclophosphamide. Four days after the injection, 0.2 ml SRBC (sheep red blood cells) suspension (5×10^7 cells/ml) was intravenously sensitized. Three days after the sensitization; delayed-type hypersensitive responses were induced with intradermally injection of 0.05 ml SRBC suspension (8×10^9 cells/ml) to the left hind paw. After 24 hours, the mice were killed and both hind paws were cut off at the ankle to determine the weight of the paw. The SRBC-induced edema was measured as the difference between the left and right paw weights. The inhibitory percentage in paw edema produced by the compound treatment was expressed relative to the edema from the control mice. The test compounds were suspended in 0.5% carboxymethylcellulose (CMC) solution and were administered p.o. once a day for 5 days from 2 days prior to the sensitization. 0.5 % CMC solution instead of the test compounds was administered to the control mice.

The test system of experiment [2] is experimental allergic encepharomyelitis (EAE). Put plainly: Experimental allergic encepharomyelitis (EAE). Format: in vivo, Lewis female rats. The note with it: Rattus norvegicus, po, 432 h, day 0 to 13, cumulative score for 18 days, rats, read-out: Inhibition of clinical score; for inhibition in vivo at 30 mg/kg: 30 mg/kg p.o. once a day; for inhibition in vivo at 100 mg/kg: 100 mg/kg p.o. once a day. On the procedure: Effect of the test compounds on experimental allergic encep-haromyelitis. Experimental allergic encepharomyelitis (EAE) is a prototype for cell-mediated autoimmune diseases, and has been widely used as an animal model of multiple sclerosis. According to the method described by Deguchi et al., Brain and Nerve, Vol.42, pp.391-397(1990), EAE was induced by using Lewis female rats (5 rats per group). […] 0.5 % CMC solution instead of the test compound was administered to the control rats. The cumulative score of the symptoms for 18 days was obtained and the inhibitory percentage in the cumulative score produced by the test compound group was expressed relative to the cumulative score from the control group.

The test system of experiment [3] is hemolytic plaque forming cell (PFC) response. As to the kind of experiment: Hemolytic plaque forming cell (PFC) response, SRBC sensitization. As to conditions: for PFC No./spleen: mean ± S.E. Format: in vivo, BDF1 male mice.
Experiment [4] relates to very late antigen-4 (VLA-4). Put plainly: Expression of VLA-4 on lymphocytes from EAE rats (flow cytometry). Format: in vivo, rat. As to conditions: 100 mg/kg, ten days after immunization, control 29.9. As to the method: Effect of the compounds on the expression of cell adhesion molecule (very late antigen-4:VLA-4) in EAE rats.
VLA-4 is one of the cell adhesion molecules which may be involved in the migration of lymphocytes. The effect of the compounds on the expression of VLA-4 on lymphocytes from EAE rats was examined. […] The leukocyte fraction was isolated from 5ml of the blood by density gradient centrifugation. 5×10^5of the leukocytes were suspended in 0.5 ml of phosphate buffered saline (PBS) containing 0.1 % bovine serum albumin and then reacted with 5 μl of mouse anti-rat VLA-4 antibo dy. After incubation at 4° C. for 1 hour, the cells were reacted with fluorescence isothiocyanate-conjugated sheep anti-mouse immunoglobulin for a further 30 min. The cells were washed with PBS and were analyzed on flow cytometry. The lymphocyte population was isolated to construct on based a forward and 90° light scatter. The results were expressed as a percentage of VLA-4 positive cell number to the lymphocyte number.

Another experiment concerns CD11b. As to the kind of experiment: Enhanced expression of CD11b in HL-60 cells stimulated by PMA (flow cytometry). Format: cell-based, human. The note with it: 10 μg/ml; HL-60, 24 hours; mean ± S.E., 6 measurements; control 82.2 ± 4.9. As to the method:
Effect of the test compounds on the enhanced expression of cell adhesion molecule CD11b in HL-60 (human promyelocytic leukemia cell line)stimulatedby phorbol myristate acetate (PMA).
CD11b is the α-chain of cell adhesion molucule Mac-1, which is expressed in the activation of monocytes. The effect of the test compounds on the expression of CD11b on monocytes, HL-60 cells was analyzed. In brief, 5×10^6 HL-60 cells were suspended in 2 ml of RPMI-1640 containing 10% fetal calf serum (FCS) in each well of a 12-well multiplate, and then PMA ([…] final concentration) and the test compound were added to themedium. After incubation at 37° C. for 24 hours in an atmosphere containig 5% CO2, the cells were collected and was hed with PBS. 3×10^3 HL-60 cells were resuspended in 300 μl PBS(containing 1% FCS) and incubated with 5 μl of phycoerythrin-conjugated mouse anti-human CD11b antibody. After 1 hour incubation at 4° C., the cells were washed with PBS. The cells were analyzed on flow cytometry, and the results were expressed as the enhanced percentage of CD11b positive cells in the treated group relative to the PMA-untreated group.

[5] abbreviates: 2 × 10^6 cells sensitization, 1 mg/kg p.o. for 3 days.
The mark [6] stands for this setting: 2 × 10^6 cells sensitization, 10 mg/kg p.o. for 3 days.
[7] abbreviates: 2 × 10^6 cells sensitization, 100 mg/kg p.o. for 3 days.
Where [8] appears, read: 2 × 10^8 cells sensitization, 1 mg/kg p.o. for 3 days.
Where [9] appears, read: 2 × 10^8 cells sensitization, 10 mg/kg p.o. for 3 days.
[10] abbreviates: 2 × 10^8 cells sensitization, 100 mg/kg p.o. for 3 days.

Consider `CS(=O)(=O)Nc1cc2occ(NC=O)c(=O)c2cc1Nc1ccc(F)cc1F` [compound No. 9, 6-(2,4-difluorophenylamino)-3-formylamino-7-methylsulfonylamino-4H-1-benzopyran-4-one], for which the inhibition in vivo at 100 mg/kg in experiment [1] was found to be 28%. The inhibition in vivo at 30 mg/kg in experiment [2] stood at 50%.
Turning to `CC(C)(S)[C@@H](N)C(=O)O` [D-PENICILLAMINE, D-penicillamine, reference compound], the figures for the inhibition in vivo at 100 mg/kg in experiment [1] and in experiment [2] were -3% and -10%, respectively.
Turning to `CS(=O)(=O)Nc1cc2occc(=O)c2cc1Oc1ccc(F)cc1F` [compound No. 3, 6-(2,4-difluorophenoxy)-7-methylsulfonylamino-4H-1-benzopyran-4-one], the inhibition in vivo at 30 mg/kg was 48% in experiment [1] and 86% in experiment [2].
Take `CS(=O)(=O)Nc1cc2occ(C(N)=O)c(=O)c2cc1Oc1ccccc1` [compound No. 4, 3-carbamoyl-7-methylsulfonylamino-6-phenoxy-4H-1-benzopyran-4-one]: the inhibition in vivo at 100 mg/kg in experiment [1] was found to be 41%. Besides, in experiment [2], the inhibition in vivo at 30 mg/kg was found to be 50%.
The matching figures for `CN(C=O)c1coc2cc(NS(C)(=O)=O)c(Oc3ccccc3)cc2c1=O` [compound No. 6, 3-(N-formyl-N-methyl)amino-7-methylsulfonylamino-6-phenoxy-4H-1-benzopyran-4-one]: 17% and 66%.
Take `CS(=O)(=O)Nc1cc2occ(NC=O)c(=O)c2cc1Oc1ccccc1` [compound No. 1, 3-formylamino-7-methylsulfonylamino-6-phenoxy-4H-1-benzopyran-4-one]: in experiment [1], the inhibition in vivo at 10 mg/kg turned out to be 12%. Further, the inhibition in vivo at 30 mg/kg in experiment [1] stood at 27%. Further, the figures for the inhibition in vivo at 100 mg/kg in experiment [1] and in experiment [2] were 39% and 67%, respectively. In addition, the “PFC number, percentage of control group” value is 145 PERCENTAGE in experiment [3] (setting [5]); 146 PERCENTAGE in experiment [3] (setting [6]); 111 PERCENTAGE in experiment [3] (setting [7]); 963 PERCENTAGE in experiment [3] (setting [8]); 92 PERCENTAGE in experiment [3] (setting [9]); 54 PERCENTAGE in experiment [3] (setting [10]). Moreover, the “PFC No./spleen” value in experiment [3] (setting [5]) is 7.06 ± 1.17 ×10^3; in experiment [3] (setting [6]) it was 7.13 ± 0.52 ×10^3; in experiment [3] (setting [7]), 5.40 ± 0.49 ×10^3; in experiment [3] (setting [8]) it was 231 ± 18 ×10^3; in experiment [3] (setting [9]), 221 ± 17 ×10^3; in experiment [3] (setting [10]), 129 ± 20 ×10^3. Also, in experiment [2] (1 mg/kg p.o. once a day), the inhibition in vivo at 1 mg/kg was 21%. Further, the “Percentage of VLA-4 positive cell (mean)” value in experiment [4] worked out at 12.0 PERCENTAGE. Moreover, in the experiment with CD11b, the “CD11b increased rate of expression” value is recorded as 49.9 ± 1.8%.
Regarding `C[C@]12C=CC(=O)C=C1CC[C@@H]1[C@@H]2[C@@H](O)C[C@@]2(C)[C@H]1CC[C@]2(O)C(=O)CO` [PREDNISOLONE, prednisolone, reference compound], the inhibition in vivo at 10 mg/kg in experiment [1] worked out at 44%. Further, the “PFC number, percentage of control group” value in experiment [3] (setting [6]) is listed as 81 PERCENTAGE; in experiment [3] (setting [9]), 7 PERCENTAGE. In addition, the “PFC No./spleen” value in experiment [3] (setting [6]) is 3.97 ± 0.78 ×10^3; in experiment [3] (setting [9]), 17 ± 3 ×10^3.
With `CS(=O)(=O)Nc1cc2occ(C(N)=O)c(=O)c2cc1Nc1ccc(F)cc1F` [compound No. 10, 3-carbamoyl-6-(2,4-difluorophenylamino)-7-methylsulfonylamino-4H-1-benzopyran-4-one], the inhibition in vivo at 100 mg/kg in experiment [1] is 20%. In addition, the inhibition in vivo at 30 mg/kg in experiment [2] came to 42%.
With `CS(=O)(=O)Nc1cc2occ(C(=O)O)c(=O)c2cc1Oc1ccccc1` [compound No. 7, 3-carboxy-7-methylsulfonylamino-6-phenoxy-4H-1-benzopyran-4-one], the inhibition in vivo at 100 mg/kg in experiment [1] was 16%. For the same compound, in experiment [2], the inhibition in vivo at 30 mg/kg was determined as 50%.
With `CSc1coc2cc(NS(C)(=O)=O)c(Oc3ccccc3)cc2c1=O` [compound No. 8, 3-methylthio-7-methylsulfonyl amino-6-phenoxy-4H-1-benzopyran-4-one], the inhibition in vivo at 100 mg/kg in experiment [1] came out at 21%. Besides, in experiment [2], the inhibition in vivo at 30 mg/kg stood at 17%.
As to `Cc1cc(=O)c2cc(Oc3ccccc3)c(NS(C)(=O)=O)cc2o1` [compound No. 11, 2-methyl-7-methyl sulfonylamino-6-phenoxy-4H-1-benzopyran-4-one], the inhibition in vivo at 30 mg/kg in experiment [2] turned out to be 52%.
`Cc1oc2cc(NS(C)(=O)=O)c(Oc3ccccc3)cc2c(=O)c1C(N)=O` [compound No. 5, 3-carbamoyl-2-methyl-7-methylsulfonylamino-6-phenoxy-4H-1-benzopyran-4-one]: the inhibition in vivo at 100 mg/kg in experiment [1] turned out to be 16%.
With `O=C(O)c1cc(/N=N/c2ccc(S(=O)(=O)Nc3ccccn3)cc2)ccc1O` [SULFASALAZINE, Sulfasalazine, reference compound], the inhibition in vivo at 100 mg/kg in experiment [1] was determined as 5%. Moreover, the inhibition in vivo at 300 mg/kg in experiment [2] (300 mg/kg p.o. once a day) worked out at 1%.
For `CS(=O)(=O)Nc1cc2occc(=O)c2cc1Oc1ccccc1` [compound No. 2, 7-methylsulfonylamino-6-phenoxy-4H-1-benzopyran-4-one], the inhibition in vivo at 100 mg/kg in experiment [1] was found to be 17%.
Turning to `CS(=O)(=O)Nc1cc2occ(NC=O)c(=O)c2cc1Nc1ccccc1F` [compound No. 12, 6-(2-fluorophenylamino)-3-formylamino-7-methylsulfonylamino-4H-1-benzopyran-4-one], the inhibition in vivo at 30 mg/kg in experiment [2] amounted to 67%.
